In ChEMBL document CHEMBL1909046, “DrugMatrix in vitro pharmacology data”:

Experiments:
[1] = DRUGMATRIX: Serotonin (5-Hydroxytryptamine) 5-HT3 radioligand binding (ligand: [3H] GR-65630); format: cell membranes, Membrane; settings: hek293; Not Active = under 50% inhibition at 10 µM
[2] = target: T1, C-X-C chemokine receptor type 1 (Homo sapiens, UniProt P25024); further: in other assays of this panel Not Active means under 50% inhibition at 10 µM
T1 sequence (P25024 whole entry): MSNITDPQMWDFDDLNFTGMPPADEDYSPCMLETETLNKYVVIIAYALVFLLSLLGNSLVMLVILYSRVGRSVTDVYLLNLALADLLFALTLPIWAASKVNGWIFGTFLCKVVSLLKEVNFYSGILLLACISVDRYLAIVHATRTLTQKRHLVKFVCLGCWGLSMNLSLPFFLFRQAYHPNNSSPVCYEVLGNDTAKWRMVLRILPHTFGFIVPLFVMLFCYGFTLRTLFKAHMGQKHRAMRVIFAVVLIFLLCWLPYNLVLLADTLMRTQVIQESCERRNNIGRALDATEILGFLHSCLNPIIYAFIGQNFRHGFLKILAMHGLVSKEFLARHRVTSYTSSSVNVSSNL

[3] = target: Prostaglandin G/H synthase 1 (Homo sapiens, UniProt P23219); test: biochemical; format: tissue-based, Platelet; settings: platelet;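 further: inhibition of COX-1 enzyme activity, with arachidonic acid supplied as substrate; in other assays of this panel Not Active means under 50% inhibition at 10 µM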
Prostaglandin G/H synthase 1, sequence (P23219 whole entry): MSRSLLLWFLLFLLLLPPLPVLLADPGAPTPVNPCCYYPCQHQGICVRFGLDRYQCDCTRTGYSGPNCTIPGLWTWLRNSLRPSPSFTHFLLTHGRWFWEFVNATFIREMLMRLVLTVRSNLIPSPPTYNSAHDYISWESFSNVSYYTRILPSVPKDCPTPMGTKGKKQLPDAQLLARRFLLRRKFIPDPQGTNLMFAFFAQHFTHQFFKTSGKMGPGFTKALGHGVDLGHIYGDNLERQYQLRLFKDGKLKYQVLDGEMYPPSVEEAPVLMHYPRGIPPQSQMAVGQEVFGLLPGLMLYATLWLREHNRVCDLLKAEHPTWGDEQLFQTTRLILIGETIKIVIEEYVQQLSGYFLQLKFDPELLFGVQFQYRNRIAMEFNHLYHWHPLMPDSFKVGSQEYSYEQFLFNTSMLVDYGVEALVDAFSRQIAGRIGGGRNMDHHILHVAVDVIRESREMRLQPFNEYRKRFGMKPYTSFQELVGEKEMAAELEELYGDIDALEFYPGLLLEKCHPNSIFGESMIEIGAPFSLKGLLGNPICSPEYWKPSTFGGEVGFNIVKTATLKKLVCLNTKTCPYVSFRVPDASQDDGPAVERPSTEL

[4] = target: 5-hydroxytryptamine receptor 4 (Cavia porcellus, UniProt O70528); format: cell membranes, Dunkin-Hartley, Striatum, Membrane; further: in other assays of this panel Not Active means under 50% inhibition at 10 µM
5-hydroxytryptamine receptor 4, sequence (O70528 whole entry): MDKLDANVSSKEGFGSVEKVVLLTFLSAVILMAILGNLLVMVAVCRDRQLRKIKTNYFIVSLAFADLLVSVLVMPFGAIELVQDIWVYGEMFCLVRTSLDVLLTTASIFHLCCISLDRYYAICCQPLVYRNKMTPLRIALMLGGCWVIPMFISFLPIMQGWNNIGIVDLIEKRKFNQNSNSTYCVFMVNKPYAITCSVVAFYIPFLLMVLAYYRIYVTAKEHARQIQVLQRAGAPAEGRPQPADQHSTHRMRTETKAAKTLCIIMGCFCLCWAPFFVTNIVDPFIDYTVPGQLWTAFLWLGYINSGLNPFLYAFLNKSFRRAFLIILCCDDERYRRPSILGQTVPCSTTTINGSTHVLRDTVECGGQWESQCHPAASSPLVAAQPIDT

[5] = target: T2, Alpha-2A adrenergic receptor (Homo sapiens, UniProt P08913); format: cell membranes, Sf9, Membrane; settings: for Ki: read-out: Ki; on all read-outs here: in other assays of this panel Not Active means under 50% inhibition at 10 µM
T2 sequence (P08913 whole entry): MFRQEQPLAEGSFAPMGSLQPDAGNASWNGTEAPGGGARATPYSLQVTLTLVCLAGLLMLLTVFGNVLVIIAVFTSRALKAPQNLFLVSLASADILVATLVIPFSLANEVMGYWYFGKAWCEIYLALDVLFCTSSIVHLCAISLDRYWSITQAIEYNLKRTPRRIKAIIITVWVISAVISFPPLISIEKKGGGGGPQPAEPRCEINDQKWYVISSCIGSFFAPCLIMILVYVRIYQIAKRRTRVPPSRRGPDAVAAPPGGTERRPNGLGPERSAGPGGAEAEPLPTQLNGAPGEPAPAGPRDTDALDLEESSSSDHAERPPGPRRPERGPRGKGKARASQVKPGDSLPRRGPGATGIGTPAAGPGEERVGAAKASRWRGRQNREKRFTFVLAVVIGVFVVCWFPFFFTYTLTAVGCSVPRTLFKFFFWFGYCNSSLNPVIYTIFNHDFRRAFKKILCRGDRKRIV

[6] = target: T3, Adenosine receptor A3 (Homo sapiens, UniProt P0DMS8); format: cell membranes, CHO-K1, Membrane; settings: cho-k1
T3 sequence (P0DMS8 whole entry): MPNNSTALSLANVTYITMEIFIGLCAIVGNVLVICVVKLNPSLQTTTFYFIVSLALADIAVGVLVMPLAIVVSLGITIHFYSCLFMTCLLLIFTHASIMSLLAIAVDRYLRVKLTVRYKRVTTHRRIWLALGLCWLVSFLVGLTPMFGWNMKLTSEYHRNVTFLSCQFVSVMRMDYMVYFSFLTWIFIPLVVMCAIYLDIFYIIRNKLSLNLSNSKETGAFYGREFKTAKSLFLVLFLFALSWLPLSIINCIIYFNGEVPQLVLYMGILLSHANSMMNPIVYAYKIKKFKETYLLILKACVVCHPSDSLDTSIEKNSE

Compound | IC50 [1] | Ki [1] | IC50 [2] | IC50 [3] | IC50 [4] | IC50 ([5]; sf9) | IC50 [6] | IC50 ([5]; read-out: IC50) [nM] | Ki [5] [nM]
CC(C)c1c(C(=O)Nc2ccccc2)c(-c2ccccc2)c(-c2ccc(F)cc2)n1CC[C@@H](O)C[C@@H](O)CC(=O)O [ATORVASTATIN] | Not Active | Not Active | Not Active | Not Active | Not Active | Not Active | Not Active |  | 
CC(=O)OC[C@H]1O[C@@H](n2ncc(=O)[nH]c2=O)[C@H](OC(C)=O)[C@@H]1OC(C)=O [AZARIBINE] | Not Active | Not Active | Not Active | Not Active | Not Active | Not Active | Not Active |  | 
C[C@H]1[C@H](NC(=O)/C(=N\OC(C)(C)C(=O)O)c2csc(N)n2)C(=O)N1S(=O)(=O)O [AZTREONAM] | Not Active | Not Active | Not Active | Not Active | Not Active | Not Active | Not Active |  | 
O=C(O)CCNC(=O)c1ccc(/N=N/c2ccc(O)c(C(=O)O)c2)cc1 [BALSALAZIDE] | Not Active | Not Active | Not Active | Not Active | Not Active | Not Active | Not Active |  | 
COc1cc(OC)c(C(=O)CCCN2CCCC2)c(OC)c1 [BUFLOMEDIL] | Not Active | Not Active | Not Active | Not Active | Not Active | Not Active | Not Active |  | 
Cn1c(=O)c2c(ncn2C)n(C)c1=O [CAFFEINE] | Not Active | Not Active | Not Active | Not Active | Not Active | Not Active | Not Active |  | 
ClC(Cl)(Cl)Cl [CARBON TETRACHLORIDE] | Not Active | Not Active | Not Active | Not Active | Not Active | Not Active | Not Active |  | 
CO/N=C(\C(=O)N[C@@H]1C(=O)N2C(C(=O)O)=C(COC(C)=O)CS[C@H]12)c1csc(N)n1 [CEFOTAXIME] | Not Active | Not Active | Not Active | Not Active | Not Active | Not Active | Not Active |  | 
CNC1=Nc2ccc(Cl)cc2C(c2ccccc2)=[N+]([O-])C1 [CHLORDIAZEPOXIDE] | Not Active | Not Active | Not Active | Not Active | Not Active | Not Active | Not Active |  | 
Cc1cc(O)cc(C)c1Cl [CHLOROXYLENOL] | Not Active | Not Active | Not Active | Not Active | Not Active | Not Active | Not Active |  | 
CCCNC(=O)NS(=O)(=O)c1ccc(Cl)cc1 [CHLORPROPAMIDE] | Not Active | Not Active | Not Active | Not Active | Not Active | Not Active | Not Active |  | 
NS(=O)(=O)c1cc(C2(O)NC(=O)c3ccccc32)ccc1Cl (configuration not stated) [CHLORTHALIDONE] | Not Active | Not Active | Not Active | Not Active | Not Active | Not Active | Not Active |  | 
O=C(O)CC(O)(CC(=O)O)C(=O)O [CITRIC ACID] | Not Active | Not Active | Not Active | Not Active | Not Active | Not Active | Not Active |  | 
CC(C)NCC(O)c1ccccc1Cl (configuration not stated) [CLORPRENALINE] | Not Active | Not Active | Not Active | Not Active | Not Active | Not Active | Not Active |  | 
CN1CCN(C(c2ccccc2)c2ccccc2)CC1 [CYCLIZINE] | Not Active | Not Active | Not Active | Not Active | Not Active |  | Not Active | 1550 | 582
CN1C[C@@H]2C[C@H]1CN2c1cc2c(cc1F)c(=O)c(C(=O)O)cn2C1CC1 [DANOFLOXACIN] | Not Active | Not Active | Not Active | Not Active | Not Active | Not Active | Not Active |  | 
COc1cccc2c1C(=O)c1c(O)c3c(c(O)c1C2=O)C[C@@](O)(C(C)=O)C[C@@H]3O[C@H]1C[C@H](N)[C@H](O)[C@H](C)O1 [DAUNORUBICIN] | Not Active | Not Active | Not Active | Not Active | Not Active | Not Active | Not Active |  | 
O=C(O)c1cc(-c2ccc(F)cc2F)ccc1O [DIFLUNISAL] | Not Active | Not Active | Not Active | Not Active | Not Active | Not Active | Not Active |  | 
C[S+](C)[O-] [DIMETHYL SULFOXIDE] | Not Active | Not Active | Not Active | Not Active | Not Active | Not Active | Not Active |  | 
CC1=NN(c2ccccc2)C(=O)C1 [EDARAVONE] | Not Active | Not Active | Not Active | Not Active | Not Active | Not Active | Not Active |  | 
CC(C)C[C@H]1C(=O)N2CCC[C@H]2[C@]2(O)O[C@](NC(=O)[C@@H]3C=C4c5cccc6[nH]cc(c56)C[C@H]4N(C)C3)(C(C)C)C(=O)N12 [ERGOCRYPTINE] | Not Active | Not Active | Not Active | Not Active | Not Active |  | Not Active | 7.95 | 2.98
C[C@]12CC[C@@H]3c4ccc(O)cc4CC[C@H]3[C@@H]1C[C@@H](O)[C@@H]2O [ESTRIOL] | Not Active | Not Active | Not Active | Not Active | Not Active | Not Active | Not Active |  | 
C#C[C@]1(O)CC[C@H]2[C@@H]3CCC4=CC(=O)CC[C@]4(C)[C@H]3CC[C@@]21C [ETHISTERONE] | Not Active | Not Active | Not Active | Not Active | Not Active | Not Active | Not Active |  | 
CC(O)(P(=O)(O)O)P(=O)(O)O [ETIDRONIC ACID] | Not Active | Not Active | Not Active | Not Active | Not Active | Not Active | Not Active |  | 
CC(C)(C(=O)O)c1ccc(C(O)CCCN2CCC(C(O)(c3ccccc3)c3ccccc3)CC2)cc1 (configuration not stated) [FEXOFENADINE] | Not Active | Not Active | Not Active | Not Active | Not Active | Not Active | Not Active |  | 
CN1CCN(c2c(F)cc3c(=O)c(C(=O)O)cn(CCF)c3c2F)CC1 [FLEROXACIN] | Not Active | Not Active | Not Active | Not Active | Not Active | Not Active | Not Active |  | 
O=c1[nH]c(=O)n([C@H]2C[C@H](O)[C@@H](CO)O2)cc1F [FLOXURIDINE] | Not Active | Not Active | Not Active | Not Active | Not Active | Not Active | Not Active |  | 
COC(=O)Nc1nc2cc(C(=O)c3ccc(F)cc3)ccc2[nH]1 [FLUBENDAZOLE] | Not Active | Not Active | Not Active | Not Active | Not Active | Not Active | Not Active |  | 
CC(=O)OCC(=O)[C@@]1(O)CC[C@H]2[C@@H]3CCC4=CC(=O)CC[C@]4(C)[C@@]3(F)[C@@H](O)C[C@@]21C [FLUDROCORTISONE ACETATE] | Not Active | Not Active | Not Active | Not Active | Not Active | Not Active | Not Active |  | 
CCOC(=O)c1ncn2c1CN(C)C(=O)c1cc(F)ccc1-2 [FLUMAZENIL] | Not Active | Not Active | Not Active | Not Active | Not Active | Not Active | Not Active |  | 
